Assay results reported in US10588985B2, “Compositions and methods relating to RAD6 inhibition” (Wayne State University, priority 2015, dated 2020).

Experiments:
[1] = test system: SUM1315 triple negative breast cancer cell derived tumors; assay: Orthotopic tumor growth assay; type: in vivo, mice; conditions: SUM1315 xenografts, intraperitoneal injection at 5 mg/kg
Procedure: MDA-MB-468 or SUM1315 triple negative breast cancer cells (1×10^6 cells suspended in 0.1 ml Matrigel) were injected subcutaneously into the fatpads of fourth and fifth inguinal mammary glands of female nude mice. […] Control vehicle or SMI #9 free drug was administered intratumorally whereas blank-GNP and SMI #9-GNP were administered intraperitoneally. Treatments were given every fourth day. Tumor volumes and body weights were measured twice a week and mice were monitored for weight loss, gastrointestinal distress, activity, body posture, and food/water intake. Mice were sacrificed at 35-44 days postimplantation. Tumors were harvested and weighed.

[2] = test system: LC3-I/LC3-II in MDA-MB-231 cells; assay: Western blot of LC3-I/II; type: cell-based; conditions: 24 hours
Procedure: (§1) Breast cancer cells treated with vehicle, free SMI #9, blank- or SMI #9-GNP (1-5 μM) for 24-96 hours were lysed, and aliquots of lysates containing 25 μg of protein were subjected to SDS-PAGE and western blot analysis of PARP-1 (Cell Signaling), Rad6, LC3-I/II (Cell Signaling), and […] (Sigma). To determine LC3 subcellular localization, control or SMI #9-GNP treated cells were fixed with methanol:acetone (1:1, v/v) and stained with anti-LC3 antibody. Slides were incubated with FITC-conjugated secondary antibody, counterstained with DAPI and analyzed by fluorescence microscopy.

[3] = test system: LC3-I/LC3-II in SUM1315 cells; assay: Western blot of LC3-I/II; type: cell-based; conditions: 24 h
Procedure: as §1

HCC1937 cells = assay: Mitochondrial membrane potential, JC-1 assay; type: cell-based; conditions: overnight, 1 μM
Procedure: (§2) The impact of free SMI #9 or SMI #9-GNP on mitochondrial membrane potential (Δψm) on SUM1315 and HCC1937 TNBC cells was assessed using JC-1 (Mitocapture, Biovision, Mountainview, Calif.), a potentiometric green fluorescent dye that shifts to red fluorescence within mitochondria with a normal negative […]. Briefly, cells were incubated with the MitoCapture reagent for 15 min at 37° C. and imaged by fluorescence microscopy as described in Shekhar M P et al., Cancer Biol Ther 2008; 7:1774-82.
(§3) The percent of cells showing punctate red fluorescence or diffuse green fluorescence were scored by counting three-five fields of 50-100 cells in each field. Each experiment was repeated at least three times and results expressed as mean±S.E. Statistical significance of differences was determined by Student's t test.

SUM1315 cells = assay: Mitochondrial membrane potential, JC-1 assay; type: cell-based
Procedure: as §2, §3

[4] = test system: nontransformed MCF10A human breast cells; assay: Cell survival assay (MTT or trypan blue); type: cell-based; conditions: 72 hours
Procedure: (§4) MDA-MB-231, SUM-1315, MDA-MB-468, and HCC1937 TNBC cells (ATCC) were maintained in Dulbecco's Modified Eagle's Medium (DMEM)/F-12 supplemented with 5% fetal bovine serum. Nontransformed MCF10A human breast cells were maintained in DMEM/F12 supplemented with 5% horse serum, 20 ng/ml epidermal growth factor, 10 μg/ml insulin, 0.5 μg/ml hydrocortisone and 0.10 μg/ml cholera toxin. Sensitivity to SMI #9-GNP was assessed by trypan blue staining or MTT colorimetric assay. Briefly, cells were seeded in 96-well plates at a density of 5-7×10^3 cells per well and allowed to attach overnight. Cells were treated with free SMI #9, SMI #9-GNP, or blank-GNP at various concentrations in triplicates for 72 hours. In some cases, treatments included various doses of cisplatin singly or in combination with SMI #9-GNP. On the final day, medium was replaced with drug free medium, incubated with MTT at 37° C. for 2-3 hours. The medium and MTT were removed, and the MTT-formazan crystals dissolved in 200 μl of 0.04 N HCl/isopropanol, and absorbance measured at 570 nm using the Synergy 2 multi-well plate reader. Alternately, cultures were trypsinized and cell viability determined by trypan blue exclusion using the Biorad TC10 automatic cell counter. At least two to three independent experiments were performed for each cell line.

HCC1937 TNBC cells = assay: Cell survival assay (MTT or trypan blue); type: cell-based; conditions: Homo sapiens, 72 hours
Procedure: as §4

MDA-MB-468 TNBC cells = assay: Cell survival assay (MTT or trypan blue); type: cell-based; conditions: Homo sapiens; MDA-MB-468 cells, 72 hours
Procedure: as §4

SUM1315 TNBC cells = assay: Cell survival assay (MTT or trypan blue); conditions: 72 hours, for SMI #9-GNP based on the concentration of SMI #9
Procedure: as §4

MDA-MB-231 TNBC cells = assay: Cell survival assay (MTT or trypan blue); conditions: Homo sapiens; MDA-MB-231 cells, 72 hours; for SMI #9-GNP based on the concentration of SMI #9
Procedure: as §4

[5] = test system: MDA-MB-468 or SUM1315 triple negative breast cancer cell derived tumors; assay: Orthotopic tumor growth assay, tumor line not given; type: in vivo; conditions: female nude mice, 1.5 mg/kg intratumorally every fourth day
Procedure: MDA-MB-468 or SUM1315 triple negative breast cancer cells (1×10^6 cells suspended in 0.1 ml Matrigel) were injected subcutaneously into the fatpads of fourth and fifth inguinal mammary glands of female nude mice. Mice were randomized and treatments with SMI #9-GNP (0.285 mg/kg body wt), SMI #9 free drug (1.5 mg/kg body wt.), blank-GNP (volumes equivalent to SMI #9-GNP), or vehicle control were initiated upon detection of palpable lesions. Control vehicle or SMI #9 free drug was administered intratumorally whereas blank-GNP and SMI #9-GNP were administered intraperitoneally. Treatments were given every fourth day. Tumor volumes and body weights were measured twice a week and mice were monitored for weight loss, gastrointestinal distress, activity, body posture, and food/water intake. Mice were sacrificed at 35-44 days postimplantation. Tumors were harvested and weighed.

PARP-1 in TNBC cells = assay: Western blot of PARP-1 steady-state levels; type: cell-based; conditions: TNBC cell lines, 24 hours
Procedure: as §1

in vivo = assay: in vivo; set-up: species or system mice; conditions: mouse, iv, 5 mg/kg
Procedure: To determine release of conjugated drugs and metabolic stability of GNP conjugates, mice were given a single i.v. injection of SMI #9-GNP at 5 mg/kg body wt. Blood samples were collected at 0, 5 min, 15 min, 30 min, 1 h, 2 h, 4 h, 8 h, and 24 h post-injection. Similarly, to assess the stability of SMI #9 as a free drug, a single i.v. injection of SMI #9 at 5 mg/kg was injected and blood samples collected. Concentrations of SMI #9 in plasma were determined by tandem LC-MS/MS and non-compartmental analysis with WinNonlin v5.2 (Pharsight).

In the case of `Nc1nc(COC(=O)c2ccc([N+](=O)[O-])cc2)nc(Nc2ccccc2)n1` [SMI #9], the tumor growth [1] is reported as “no significant change in tumor growth”, the “LC3-I and LC3-II levels” value [2] is reported as “downregulated both LC3-I and LC3-II” and the “changes in LC3-I processing” value [3] is reported as “not readily apparent”. The “JC-1 punctate red fluorescence” value (HCC1937 cells) was “reduced the punctate red fluorescence staining”, the mitochondrial integrities (SUM1315 cells) was “similarly and dramatically compromised” and the “JC-1 punctate red fluorescence” value (SUM1315 cells; overnight, 1 μM) was “reduced the punctate red fluorescence staining”. For the same molecule, the “sensitivity (growth inhibition)” value [4] was “unaffected”, the GI50 (HCC1937 TNBC cells) was 1.8 µM and the GI50 (MDA-MB-468 TNBC cells) was 3 µM. The GI50 (SUM1315 TNBC cells) was 6 µM, the GI50 (MDA-MB-231 TNBC cells) was 5 µM and the tumor growth [5] was “tumor growth inhibition compared to controls”. The “PARP-1 processing / steady-state levels” value (PARP-1 in TNBC cells) was “stabilization/hyperactivation of PARP-1”, the Cmax (in vivo) was 409 nM and the Tmax (in vivo) was about 5 min.
